# Data: US9757393B2 (priority 2015, dated 2017)
# Test system: HFD-fed C57BL/6J mice
# Assay: Blood glucose, HbA1c, blood lipids, insulin and leptin levels in HFD-fed mice
# Assay type: in vivo
# Conditions: for Blood Profiles FFA / Blood Profiles HDL-C / Blood Profiles HbA1c / Blood Profiles LDL-C: oral gavage daily for 4 weeks; for blood glucose levels / blood insulin levels / blood leptin levels / blood total cholesterol (TC) levels / blood triglyceride (TG) level: vs HF group
# Method: Experimental Animals: the experiments are conducted under the guidelines of the Institutional Animal Care and Use Committee of Central Taiwan University of Science and Technology. As previously described, four-week-old male C57BL/6J mice (n=63) is purchased from the National Laboratory Animal Breeding and Research Center, Ministry of Science and Technology. After 1-week of acclimatization, mice are designed to initiate the study, and the study lasts for 12 weeks. […] The CON group and high-fat control (HF) group are given with vehicle only. The low-fat diet consisted of fat 10%, whereas the high-fat diet (HFD) consisted of fat 45% (of total energy, % kcal). The compositions of the experimental diets are shown as described. At the end of the study, food is derived from the animals (from 10 p.m. to 10 a.m.). On the next day, the mice are sacrificed, and blood and tissue are collected for analysis. Livers, skeletal muscles, and white adipose tissues (WATs) (including epididymal, mesenteric and retroperitoneal WAT) are excised and weighed, and then immediately stored in a freezer at −80° C. Heparin (30 units/mL) (Sigma) is added to blood samples. Plasma samples are collected by centrifugation at 1600 g for 15 min at 4° C. within 30 min, and plasma is obtained for insulin and leptin level analysis.
# Blood Glucose and HbA1c Levels. Blood samples (0.8 mL) are collected from the retro-orbital sinuses of fasting mice, and glucose level is measured by the glucose oxidase method (model 1500; Sidekick Glucose Analyzer; YSI Inc., Yellow Springs, Ohio, USA). Percent HbA1c is detected with a Hemoglobin A1c kit (BioSystems S.A., Barcelona, Spain). Plasma triglycerides (TG), total cholesterol (TC), free fatty acids (FFA), high-density lipoprotein cholesterol (HDL-C), and low density lipoprotein cholesterol (LDL-C) are determined using commercial assay kits (Triglycerides-E test, Cholesterol-E test, and FFA-C test, Wako Pure Chemical, Osaka, Japan; HDL-C-test and LDL-C-test, Roche Diagnostics GmbH, Indianapolis, USA) according to their instructions. A mouse insulin ELISA kit (Sibayagi, Gunma, Japan) and mouse leptin ELISA kit (Morinaga, Yokohama, Japan) are used to measure blood insulin and leptin levels, respectively.
compound,measurement,setting,value
"CC(C)[C@@H](C)C=C[C@@H](C)[C@H]1CC[C@H]2C3=CCC4C[C@@H](O)CC[C@]4(C)C3=CC[C@]12C (stereo partly drawn) [ergostatrien-3β-ol, ergosta-7,9(11),22-trien-3β-ol]",levels of TG (circulating),dose not specified,moderate reduction
same,Blood Profiles FFA,10 mg/kg/day,1.06 ± 0.10 meq/L
same,Blood Profiles HDL-C,10 mg/kg/day,82.2 ± 3.9 mg/dL
same,Blood Profiles HbA1c,10 mg/kg/day,5.8 ± 0.7 %
same,Blood Profiles FFA,20 mg/kg/day,1.05 ± 0.09 meq/L
same,Blood Profiles HDL-C,20 mg/kg/day,83.0 ± 2.0 mg/dL
same,Blood Profiles HbA1c,20 mg/kg/day,5.7 ± 0.5 %
same,Blood Profiles LDL-C,20 mg/kg/day,103.7 ± 10.8 mg/dL
same,Blood Profiles FFA,40 mg/kg/day,1.03 ± 0.05 meq/L
same,Blood Profiles HDL-C,40 mg/kg/day,83.8 ± 1.6 mg/dL
same,Blood Profiles HbA1c,40 mg/kg/day,5.1 ± 0.3 %
same,Blood Profiles LDL-C,40 mg/kg/day,86.8 ± 11.5 mg/dL
same,blood glucose levels,10 mg/kg/day,significantly reduce
same,blood insulin levels,10 mg/kg/day,decrease
same,blood leptin levels,10 mg/kg/day,decrease
same,blood total cholesterol (TC) levels,10 mg/kg/day,lower
same,blood triglyceride (TG) level,10 mg/kg/day,decrease
same,blood glucose levels,20 mg/kg/day,significantly reduce
same,blood insulin levels,20 mg/kg/day,decrease
same,blood leptin levels,20 mg/kg/day,decrease
same,blood total cholesterol (TC) levels,20 mg/kg/day,lower
same,blood triglyceride (TG) level,20 mg/kg/day,decrease
same,blood glucose levels,40 mg/kg/day,significantly reduce
same,blood insulin levels,40 mg/kg/day,decrease
same,blood leptin levels,40 mg/kg/day,decrease
same,blood total cholesterol (TC) levels,40 mg/kg/day,lower
same,blood triglyceride (TG) level,40 mg/kg/day,decrease
